Test results from ChEMBL document CHEMBL1201862, “PubChem BioAssay data set” (2004).
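Tested at 5 concentrations; 48 h exposure; 96-well plates; endpoints linearly interpolated, else capped at highest concentration. Here, GI50 denotes the concentration required for 50% inhibition of growth.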 Calls of active or inactive are those of the source. Rule as the data show it: active = GI50 up to about 1.1 µM and inactive = higher.

Key:
Assay in all cases: growth of human tumour cells (NCI), 48 h
[1] = test system: DMS-114
[2] = test system: DMS-273
[3] = test system: HOP-18
[4] = test system: KM-20L2
[5] = test system: LXFL 529
[6] = test system: M19-MEL
[7] = test system: RXF 631
[8] = test system: SNB-78
[9] = test system: XF498

Measured: GI50

CC(=O)O[C@H]1[C@H](O[C@H]2CC[C@]34C[C@]35CC[C@]3(C)[C@@H]([C@@]6(C)CC[C@@H](C(C)(C)O)O6)[C@@H](O)C[C@@]3(C)[C@@H]5C[C@H](O[C@@H]3O[C@H](CO)[C@@H](O)[C@H](O)[C@H]3O)[C@H]4C2(C)C)OC[C@@H](O)[C@@H]1O
inactive: [1] 66.2 µM | [2] 44.6 µM | [3] > 100 µM | [4] 69.7 µM | [5] 74.8 µM | [6] 78.5 µM | [7] > 100 µM | [8] > 100 µM | [9] > 100 µM
